Counter-ions that a name gives are not always drawn.
Target: T1, CRTH2 receptor (Homo sapiens, UniProt Q9Y5Y4)
T1 construct: expressed in transfected cells; host or cells: CHO-K1/G cells
T1 sequence (Q9Y5Y4 1-395): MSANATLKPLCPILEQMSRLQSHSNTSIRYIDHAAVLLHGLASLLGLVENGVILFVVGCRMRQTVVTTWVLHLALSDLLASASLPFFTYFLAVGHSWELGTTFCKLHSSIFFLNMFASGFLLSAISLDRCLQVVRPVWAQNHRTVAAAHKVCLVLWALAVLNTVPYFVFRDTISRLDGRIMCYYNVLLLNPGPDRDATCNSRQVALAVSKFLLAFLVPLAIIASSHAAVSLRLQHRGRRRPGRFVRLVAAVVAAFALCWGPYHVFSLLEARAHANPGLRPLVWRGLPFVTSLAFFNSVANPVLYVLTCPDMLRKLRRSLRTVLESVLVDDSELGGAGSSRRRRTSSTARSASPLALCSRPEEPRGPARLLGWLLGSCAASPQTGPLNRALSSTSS
Assay: FLIPR detection of inhibitory activity against CRTH2 (CHO-K1/G cells, PGD2 as agonist)
Format: cell-based
Details: CHO-K1/G cells with stable expression of CRTH2 receptor, PGD2 at EC80, FLIPR
Method: The test compound was weighed accurately and then dissolved in a suitable amount of DMSO to prepare a stock solution at a concentration of 10 mM; after clear and transparent, the stock solution was subpackaged and cryostoraged at −20° C. for use. Before testing, the test compound was diluted with balanced salt solution (HBSS buffer, containing 4-(2-hydroxyethyl)piperazine-1-ethanesulfonicacid) at a concentration of 20 mM) to 5 times testing concentration.
CHO-K1/G cells with stable expression of CRTH2 receptor were prepared to 5 times testing concentration and seeded into 384-microwell plate, and incubated in an incubator at 37° C./5% CO2. After incubating for 18 hours, to the cells in 384-microwell plate was added 20 μL of dye followed by the addition of 10 μL of prepared test compound solution. And then the cell plate was incubated in the incubator at 37° C./5% CO2 for 1 hour, at last which was balanced at rt for 15 min. After adding 12.5 μL of positive agonist (PGD2) at a concentration of 5 times EC80 to each well of the cell plate, the RFU (fluorescence intensity) value of the test compound was detected.
The data were recorded from ScreenWorks (version 3.1), and collected and analyzed by using Excel and GraphPad Prism 6 software to calculate the values of IC50.

| Compound | IC50 |
| --- | --- |
| Cc1c(C2CCC(NS(=O)(=O)c3ccc(F)cc3F)CC2)c2cc(F)ccc2n1CC(=O)O (single isomer, unassigned) [Example 29b, 2-(3-(4-(2,4-difluorophenylsulfonamido)cyclohexyl)-5-fluoro-2-methyl-1H-indol-1-yl)acetic acid] | 79.5 nM |
| Cc1c(C2CCN(S(=O)(=O)c3ccc(Cl)cc3)CC2)c2cc(F)ccc2n1CC(=O)O [Example 47, 2-(3-(1-((4-chlorophenyl)sulfonyl)piperidin-4-yl)-5-fluoro-2-methyl-1H-indol-1-yl)acetic acid] | 139 nM |
| Cc1c(C2CCN(S(=O)(=O)c3ccc(Cl)cc3Cl)CC2)c2cc(F)ccc2n1CC(=O)O [Example 36, 2-(5-fluoro-3-(1-((2,4-dichlorophenyl)sulfonyl)piperidin-4-yl)-2-methyl-1H-indol-1-yl)acetic acid] | 422 nM |
| Cc1c(C2CCN(S(=O)(=O)c3ccc(F)cc3Cl)CC2)c2cc(F)ccc2n1CC(=O)O [Example 35, 2-(5-fluoro-3-(1-((2-chloro-4-fluorophenyl)sulfonyl)piperidin-4-yl)-2-methyl-1H-indol-1-yl) acetic acid] | 333 nM |
| Cc1c(C2CCN(S(=O)(=O)c3ccc(O)cc3)CC2)c2cc(F)ccc2n1CC(=O)O [Example 37, 2-(5-fluoro-3-(1-((4-hydroxyphenyl)sulfonyl)piperidin-4-yl)-2-methyl-1H-indol-1-yl)acetic acid] | 137 nM |
| Cc1c(C2CCC(NC(=O)NCc3ccc(F)cc3F)CC2)c2cc(F)ccc2n1CC(=O)O (stereo not drawn) [Example 16, 2-(3-(4-(3-(2,4-difluorobenzyl)ureido)cyclohexyl)-5-fluoro-2-methyl-1H-indol-1-yl)acetic acid] | 969 nM |
| Cc1c(C2CCC(N(C)S(=O)(=O)c3ccc(F)cc3)CC2)c2cc(F)ccc2n1CC(=O)O (stereo not drawn) [Example 28, 2-(5-fluoro-3-(4-(4-fluoro-N-methylphenylsulfonamido)cyclohexyl)-2-methyl-1H-indol-1-yl) acetic acid] | 138 nM |
| Cc1c(C2CCC(NC(=O)c3ccc4cccnc4n3)CC2)c2cc(F)ccc2n1CC(=O)O (single isomer, unassigned) [Example 20, 2-(3-(4-(1,8-naphthyridine-2-carboxamido)cyclohexyl)-5-fluoro-2-methyl-1H-indol-1-yl)acetic acid hydrochloride] | 39.8 nM |
| O=C(O)Cn1cc(C2CCN(S(=O)(=O)c3ccc(F)cc3)CC2)c2ccccc21 [Control compound, reference compound] | 6190 nM |
| Cc1c(C2=CCN(Cc3ccc4ccccc4n3)CC2)c2cc(F)ccc2n1CC(=O)O [Example 8, 2-(5-fluoro-2-methyl-3-(1-(quinolin-2-yl)methyl-1,2,3,6-tetrahydropyridin-4-yl)-1H-indol-1-yl)acetic acid dihydrochloride] | 657 nM |
| Cc1c(C2CCN(S(=O)(=O)c3ccc(Cl)cc3F)CC2)c2cc(F)ccc2n1CC(=O)O [Example 34, 2-(5-fluoro-3-(1-((4-chloro-2-fluorophenyl)sulfonyl)piperidin-4-yl)-2-methyl-1H-indol-1-yl) acetic acid] | 211 nM |
| Cc1c(C2CC(NS(=O)(=O)c3ccc(F)cc3)C2)c2cc(F)ccc2n1CC(=O)O (stereo not drawn) [Example 32, 2-(5-fluoro-3-(3-(4-fluorophenylsulfonamido)cyclobutyl)-2-methyl-1H-indol-1-yl)acetic acid] | 33.7 nM |

Results, then the molecule that gave them:

| IC50 | Compound |
| --- | --- |
| 192 nM | Cc1c(C2=CCN(C(=O)NCc3ccc(F)cc3F)CC2)c2cc(F)ccc2n1CC(=O)O [Example 9a, 2-(3-(1-((2,4-difluorobenzyl)carbamoyl)-1,2,3,6-tetrahydropyridin-4-yl)-5-fluoro-2-methyl-1H-indol-1-yl)acetic acid] |
| 674 nM | Cc1c(C2CCN(C(=O)c3cccc4ccccc34)CC2)c2cc(F)ccc2n1CC(=O)O [Example 2, 2-(3-(1-(1-naphthoyl)piperidin-4-yl)-5-fluoro-2-methyl-1H-indol-1-yl)acetic acid] |
| 776 nM | Cc1c(C2=CCCN(C(=O)c3ccc4ccccc4n3)C2)c2cc(F)ccc2n1CC(=O)O [Example 7, 2-(5-fluoro-2-methyl-3-(1-(quinoline-2-carbonyl)-1,2,5,6-tetrahydropyridin-3-yl)-1H-indol-1-yl)acetic acid hydrochloride] |
| 317 nM | Cc1c(C2CCN(S(=O)(=O)c3ccccc3)CC2)c2cc(F)ccc2n1CC(=O)O [Example 46, 2-(5-fluoro-2-methyl-3-(1-(phenylsulfonyl)piperidin-4-yl)-1H-indol-1-yl)acetic acid] |
| 283 nM | Cc1c(C2CCN(S(=O)(=O)c3cccc4ccccc34)CC2)c2cc(F)ccc2n1CC(=O)O [Example 42, 2-(5-fluoro-2-methyl-3-(1-(naphthalen-1-ylsulfonyl)piperidin-4-yl)-1H-indol-1-yl)acetic acid] |
| 866 nM | Cc1c(C2=CCCN(C(=O)c3cccc4ccccc34)C2)c2cc(F)ccc2n1CC(=O)O [Example 23, 2-(3-(1-(1-naphthoyl)-1,2,5,6-tetrahydropyridin-3-yl)-5-fluoro-2-methyl-1H-indol-1-yl)acetic acid] |
| 83.9 nM | Cc1c(C2CCC(NC(=O)c3cccc4ncccc34)CC2)c2cc(F)ccc2n1CC(=O)O (single isomer, unassigned) [Example 26b, 2-(5-fluoro-2-methyl-3-(4-(quinoline-5-carboxamido)cyclohexyl)-1H-indol-1-yl)acetic acid hydrochloride] |
| 106 nM | Cc1c(C2CCN(S(=O)(=O)c3ccccc3F)CC2)c2cc(F)ccc2n1CC(=O)O [Example 39, 2-(5-fluoro-3-(1-((2-fluorophenyl)sulfonyl)piperidin-4-yl)-2-methyl-1H-indol-1-yl)acetic acid] |
| 265 nM | Cc1c(C2CCC(NC(=O)c3cccc4ccccc34)CC2)c2cc(F)ccc2n1CC(=O)O (stereo not drawn) [Example 3, 2-(3-(4-(1-naphthamido)cyclohexyl)-5-fluoro-2-methyl-1H-indol-1-yl)acetic acid] |
| 545 nM | Cc1c(C2CCC(NC(=O)c3cccc4c(F)cccc34)CC2)c2cc(F)ccc2n1CC(=O)O (stereo not drawn) [Example 10, 2-(5-fluoro-3-(4-(5-fluoro-1-naphthamido)cyclohexyl)-2-methyl-1H-indol-1-yl)acetic acid] |
| 600 nM | Cc1c(C2CCC(N(C)C(=O)c3ccc4ccccc4n3)CC2)c2cc(F)ccc2n1CC(=O)O (single isomer, unassigned) [Example 17a, 2-(5-fluoro-2-methyl-3-(4-(N-methylquinoline-2-carboxamido)cyclohexyl)-1H-indol-1-yl)acetic acid hydrochloride] |
| 185 nM | Cc1c(C2CC(NC(=O)c3ccc4ccccc4n3)C2)c2cc(F)ccc2n1CC(=O)O (stereo not drawn) [Example 21, 2-(5-fluoro-2-methyl-3-(3-(quinoline-2-carboxamido)cyclobutyl)-1H-indol-1-yl)acetic acid hydrochloride] |
| 17.4 nM | Cc1c(C2CCCN(S(=O)(=O)c3ccc(F)cc3)C2)c2cc(F)ccc2n1CC(=O)O (stereo not drawn) [Example 40, 2-(5-fluoro-3-(1-((4-fluorophenyl)sulfonyl)piperidin-3-yl)-2-methyl-1H-indol-1-yl)acetic acid] |
| 306 nM | Cc1c(C2CCN(C(=O)c3ccc4ccccc4n3)CC2)c2cc(F)ccc2n1CC(=O)O [Example 4, 2-(5-fluoro-2-methyl-3-(1-(quinoline-2-carbonyl)piperidin-4-yl)-1H-indol-1-yl)acetic acid hydrochloride] |
| 97.2 nM | Cc1c(C2CCC(N(C)C(=O)c3ccc4ccccc4n3)CC2)c2cc(F)ccc2n1CC(=O)O (single isomer, unassigned) [Example 17b, 2-(5-fluoro-2-methyl-3-(4-(N-methylquinoline-2-carboxamido)cyclohexyl)-1H-indol-1-yl)acetic acid hydrochloride] |

Source: patent US9951010B2, “Compounds as CRTH2 antagonist and uses thereof” (SUNSHINE LAKE PHARMA CO., LTD., priority 2014, dated 2018)
